Measurements published in US6291449A, “Use of 11-phenyl-dibenzazepine compounds to treat diarrhea or scours” (Children's Medical Center Corporation, priority 1998, dated 2001).
Like-named read-outs stand apart in the source and are kept apart here.

What was measured:
T84 cells = assay: Electrogenic Cl- secretion (short circuit current) in intact T84 monolayers; type: cell-based, human; design: inhibition of Cl- secretory response to carbachol (Isc): dose or concentration left out as unconfirmed; settings: for inhibition of chloride secretion: T84 cells
basolateral K+ channels [1] = assay: K+ transport/conductance of basolateral membrane in apically permeabilized T84 monolayers; settings: for activation of currents at positive transepithelial voltages: basolaterally directed K+ gradient; for increases in Isc and G in absence of K+: Na+ as sole permeant cation, 135 mM gradient; for effect on K+ transport (Isc and G): forskolin 10 μM, 135 mM K+ gradient; for duration of agonist-induced changes in Isc: permeabilized T84 monolayers
rabbit colonic mucosa = assay: Ussing chamber studies using rabbit colonic mucosa; design: species or system rabbit (New Zealand)
[2] = target: T1, basolateral NaK2Cl cotransporters (Homo sapiens, UniProt P55011); assay: 86Rb uptake in T84 monolayers (bumetanide-sensitive NaK2Cl cotransport); type: cell-based
T1 sequence (P55011 1-1212): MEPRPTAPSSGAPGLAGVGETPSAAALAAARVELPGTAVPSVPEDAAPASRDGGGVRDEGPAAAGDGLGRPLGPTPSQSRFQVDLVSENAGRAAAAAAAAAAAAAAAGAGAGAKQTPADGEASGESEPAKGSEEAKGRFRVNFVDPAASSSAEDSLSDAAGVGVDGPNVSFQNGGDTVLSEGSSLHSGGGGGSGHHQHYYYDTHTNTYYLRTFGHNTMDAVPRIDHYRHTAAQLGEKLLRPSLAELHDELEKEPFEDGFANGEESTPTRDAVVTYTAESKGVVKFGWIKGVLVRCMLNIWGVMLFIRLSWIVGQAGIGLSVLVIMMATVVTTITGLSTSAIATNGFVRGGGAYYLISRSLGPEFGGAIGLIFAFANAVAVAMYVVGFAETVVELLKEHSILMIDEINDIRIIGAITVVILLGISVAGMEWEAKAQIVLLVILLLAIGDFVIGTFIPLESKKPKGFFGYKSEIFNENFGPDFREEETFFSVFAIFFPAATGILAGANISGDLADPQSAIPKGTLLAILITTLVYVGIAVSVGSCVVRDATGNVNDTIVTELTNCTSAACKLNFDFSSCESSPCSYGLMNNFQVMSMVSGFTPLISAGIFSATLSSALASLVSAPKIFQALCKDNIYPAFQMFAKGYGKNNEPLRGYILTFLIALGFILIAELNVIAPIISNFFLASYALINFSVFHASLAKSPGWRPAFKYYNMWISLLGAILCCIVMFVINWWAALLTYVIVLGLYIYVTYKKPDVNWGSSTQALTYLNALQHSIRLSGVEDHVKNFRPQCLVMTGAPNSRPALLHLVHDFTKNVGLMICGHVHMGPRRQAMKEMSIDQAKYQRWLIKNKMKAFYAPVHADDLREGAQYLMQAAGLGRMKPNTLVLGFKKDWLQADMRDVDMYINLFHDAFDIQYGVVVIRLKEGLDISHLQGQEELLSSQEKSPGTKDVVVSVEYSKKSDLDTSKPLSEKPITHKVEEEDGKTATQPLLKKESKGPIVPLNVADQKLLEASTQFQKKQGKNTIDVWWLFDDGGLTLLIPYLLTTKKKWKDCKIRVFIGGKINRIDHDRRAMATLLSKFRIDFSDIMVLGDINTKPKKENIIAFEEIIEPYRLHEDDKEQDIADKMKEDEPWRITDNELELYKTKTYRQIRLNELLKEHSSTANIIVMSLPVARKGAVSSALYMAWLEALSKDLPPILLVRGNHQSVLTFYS
Experimental: A group of control and CLT treated (33 μM, for 30 min) monolayers were treated with bumetanide (10 μM for 12 min).

[3] = system: apical membrane Cl- channels; assay: Cl- conductance of the apical plasma membrane in basolaterally permeabilized T84 monolayers; type: cell-based, human
[4] = system: apical membrane Cl- channels; assay: 125I efflux from T84 monolayers (apical Cl- channel activity)
basolateral K+ channel = assay: 86Rb efflux from T84 monolayers (K+ channel activity); type: cell-based, human
[5] = system: intestinal fluid secretion induced by cholera toxin; design: species or system mouse (Balb/C); settings: mouse, in vivo
basolateral K+ channels [6] = system: basolateral K+ channels
[7] = clotrimazole 33 μM, final 30 min of 90 min preincubation
[8] = T84 cells, vs cells not treated with clotrimazole
[9] = carbachol (so in the source) stimulated, […]

## CC(=O)N1CCN(c2ccc(OCC3COC(Cn4ccnc4)(c4ccc(Cl)cc4Cl)O3)cc2)CC1 (stereo not shown) [ketoconazole]
T84 cells
  inhibition of chloride secretion: effective at inhibiting chloride secretion

## Clc1ccc(COC(Cn2ccnc2)c2ccc(Cl)cc2Cl)c(Cl)c1 (stereo not shown) [miconazole]
T84 cells
  inhibition of chloride secretion: effective at inhibiting chloride secretion

## C[C@@H]1[C@H](O)[C@@H](C)/C=C/C=C/C=C/C=C/C=C/C=C/C=C/[C@H](O[C@@H]2O[C@H](C)[C@@H](O)[C@H](N)[C@@H]2O)C[C@@H]2O[C@](O)(C[C@@H](O)C[C@@H](O)[C@H](O)CC[C@@H](O)C[C@@H](O)CC(=O)O[C@H]1C)C[C@H](O)[C@H]2C(=O)O [amphotericin B]
Basolateral K+ channels [1]; amphotericin B, apical
  increase in conductance on initial permeabilization: 49±19%

## Clc1ccccc1C(c1ccccc1)(c1ccccc1)n1ccnc1 [clotrimazole]
Rabbit colonic mucosa; clotrimazole 30 μM, forskolin 10 μM
  inhibition of time course of forskolin induced Isc: inhibited strongly
[2]; 0.5 h, read-out: reduction of total amount of 86Rb uptake
  inhibition at 33 µM: 53.6 ± 5.8%
[2]; clotrimazole 33 μM, bumetanide 10 μM
  effect on fractional component of 86Rb uptake that was bumetanide-sensitive: no effect
T84 cells
  apparent potency of inhibition, basolateral vs apical application: greater when applied basolaterally than apically
  inhibition by basolateral application alone compared with both sides: almost as effective as incubation on both sides
  inhibition of Cl- secretory response to VIP (Isc): inhibited
  inhibition of Cl- secretory response to carbachol (Isc): inhibited
  inhibition of Cl- secretory response to carbachol after pretreatment: inhibited strongly
  inhibition of Cl- secretory response to ionomycin after pretreatment: inhibited strongly
  inhibition of Cl- secretory response to thapsigargin after pretreatment: inhibited strongly
  inhibition of cAMP and Ca++ elicited Cl- secretion: most potent inhibitor tested
  inhibition of secretory response to 8Br-cAMP after pretreatment: inhibited
  inhibition of secretory response to VIP after pretreatment: inhibited
  inhibition of secretory response to forskolin after pretreatment: inhibited
  inhibition of synergistic response to VIP plus carbachol: found to parallel the inhibition of secretion promoted by Ca^++ agonists alone
  reversibility of inhibition of Cl- secretion: 96±2%
T84 cells; Homo sapiens, T84, read-out: IC50, inhibition of secretory response to E. Coli heat-stabile toxin
  IC50: 15 µM
T84 cells; low doses (10^-7 or less)
  potentiation of Cl- secretory responses to either agonist: 5-10%
[3]; symmetrical Cl- 142 mM
  effect on forskolin-stimulated Cl- conductances: no detectable effect
  effect on thapsigargin-stimulated Cl- conductances: no detectable effect
Basolateral K+ channels [1]
  inhibition of time course of K+ transport after carbachol: significantly inhibited
  inhibition of time course of K+ transport after forskolin: significantly inhibited
[4]; VIP-stimulated, clotrimazole-treated monolayers, n=2 in duplicate
  rate constant for 125I efflux: 0.0637 % uptake/minute
[4]; [7]
  125I loading of the cells: did not alter
[4]; monolayers treated with VIP
  effect on time course of 125I efflux, VIP: little or no effect
Basolateral K+ channel; [8]
  inhibition of Ca++ stimulated 86Rb efflux: significantly inhibited
  inhibition of baseline 86Rb efflux: significantly inhibited
Basolateral K+ channel; VIP 5 μM, clotrimazole 33 μM
  reduction of rate constant for VIP-stimulated 86Rb efflux: 87%
Basolateral K+ channel; [7]
  86Rb loading of the cells: did not alter
Basolateral K+ channel; clotrimazole-treated (vs 0.0465 untreated), n=2 in triplicate
  rate constant for VIP-stimulated 86Rb efflux: 0.0062 % uptake/minute
Basolateral K+ channel; clotrimazole-treated (vs 0.048 untreated), n=2
  rate constant for thapsigargin-stimulated 86Rb efflux: 0.011 % uptake/minute
Basolateral K+ channel; compared with VIP-stimulated efflux
  inhibition of 86Rb efflux stimulated with thapsigargin: inhibited to a similar degree
[5]
  effect on intestinal secretion in the absence of cholera toxin: no effect
  reduction of intestinal fluid secretion induced by cholera toxin: 86%

## C/C=C(/C)C(=O)O[C@H]1C(C)=C2[C@H]([C@@H]1OC(=O)CCCCCCC)[C@@](C)(OC(C)=O)C[C@H](OC(=O)CCC)[C@@]1(O)[C@H]2OC(=O)[C@@]1(C)O [thapsigargin]
Basolateral K+ channels [1]
  activation of currents at positive transepithelial voltages: activate macroscopic outwardly rectified (mucosal to serosal) currents
Basolateral K+ channels [6]
  reversal potential (I/V relations): -40 mV

## [Ba+2].[Cl-].[Cl-] [BaCl2]
T84 cells
  inhibition of Cl- secretory response to VIP (Isc): strongly inhibited
T84 cells; [9]
  inhibition of Cl- secretory response to carbachol (Isc): no apparent affect
Basolateral K+ channels [1]; carbachol 100 μM after forskolin, BaCl2 3 mM
  effect on K+ transport induced by carbachol: no detectable effect
Basolateral K+ channels [1]; forskolin 10 μM elicited, BaCl2 3 mM basolateral
  inhibition of cAMP-sensitive IK: greater than 70%

## C=C[C@@]1(C)CC(=O)[C@]2(O)[C@@]3(C)[C@@H](O)CCC(C)(C)[C@@H]3[C@H](O)[C@H](OC(C)=O)[C@@]2(C)O1 [forskolin]
[3]; forskolin 10 μM basolateral, no clotrimazole
  effect on Cl- conductance over baseline: increased Cl- conductances significantly over baseline
Basolateral K+ channels [1]
  increases in Isc and G in absence of K+: not detectable
  activation of currents at positive transepithelial voltages: activate macroscopic outwardly rectified (mucosal to serosal) currents
  effect on K+ transport (Isc and G): brisk increase in K+ transport
  duration of agonist-induced changes in Isc: sustained
Basolateral K+ channels [6]
  reversal potential (I/V relations): -40 mV

## C[N+](C)(C)CCOC(N)=O [carbachol]
Rabbit colonic mucosa; carbachol 100 μM added after forskolin
  effect on Isc after forskolin: no firther effect
Basolateral K+ channels [1]
  increases in Isc and G in absence of K+: not detectable
  effect on K+ transport (Isc and G): increased K+ currents
  duration of agonist-induced changes in Isc: short-lived
Basolateral K+ channels [1]; after addition of carbachol
  time to return of IscK and GK to baseline: ≤ 5 min
Basolateral K+ channels [1]; after forskolin
  carbachol-induced IscK, carbachol added after forskolin: 180.7±15.7 μA/cm^2
Basolateral K+ channels [1]; carbachol alone
  carbachol-induced IscK, carbachol added alone: 111.7±7.4 μA/cm^2

## Clc1ccc(COC(Cn2ccnc2)c2ccc(Cl)cc2Cl)cc1 (stereo not shown) [econazole]
T84 cells
  inhibition of chloride secretion: effective at inhibiting chloride secretion

## charybdotoxin
T84 cells
  inhibition of Cl- secretory response to VIP (Isc): minimal affects
T84 cells; [9]
  inhibition of Cl- secretory response to carbachol (Isc): strongly inhibited
Basolateral K+ channels [1]; charybdotoxin 100 nM
  effect on K+ transport induced by subsequent forskolin: no detectable effect
Basolateral K+ channels [1]; charybdotoxin 100 nM pretreatment
  inhibition of carbachol-induced Ca++ IK: 50%

## OC(c1ccccc1)(c1ccccc1)c1ccccc1Cl [2-chlorophenyl-bis-phenyl methanol]
T84 cells
  inhibition of chloride secretion: effective at inhibiting chloride secretion
Basolateral K+ channels [1]; carbachol 100 μM (Ca++ agonist)
  inhibition of time course of K+ transport after carbachol: Nearly identical results
Basolateral K+ channels [1]; forskolin 10 μM (cAMP agonist)
  inhibition of time course of K+ transport after forskolin: Nearly identical results
